Experimental data as given in patent US11959929B2, “Method of quantifying lysergic acid diethylamide (LSD) and 2,3-dihydro-3-hydroxy-2-oxo lysergide (O-H-LSD) in human plasma” (Universitatsspital Basel, priority 2020, dated 2024).
“And” between values parts separate entries of the source, which are not always exact repeats. Identical values can stand only once.

Tests used:
[1] = Reinjection reproducibility of worked-up plasma samples (overnight at 10° C. in autosampler; 1 week at −20° C.); format: physicochemical, human; settings: for Change in concentration: 1 night at 10° C. in the autosampler vs Baseline; for Change in concentration [%]: 8 days at −20° C. vs Baseline; for Accuracy: single QC replicate
Excerpt: (§1) Each analyte had to be stable in human plasma for at least three freeze-thaw cycles (for repeated sample preparations) and at ambient temperature for at least eight hours (maximal duration of sample preparation). Measured samples should be stable for a second injection when the first analytical run was not valid. The analytes had to be stable in the matrix at the intended storage temperatures and study duration.
(§2) An analyte was considered stable at one of the above tests when no increase or decrease of the analyte concentration of more than 15% for the mean of at least three analyzed QC samples at low, medium and at high concentration was observed.
Worked-up and measured Cal and QC samples (prepared in human plasma) of a valid run were repeatedly analyzed. Reinjection was performed after overnight storage at 10° C. (autosampler) and after 1-week storage at −20° C. The run was checked according to the acceptance criteria for validation runs. The calculated mean values for QC samples were compared between the original and reinjected run.

[2] = Freeze/thaw stability tests in human plasma (three cycles, about −20° C.); format: physicochemical; settings: for Change in concentration [%]: 3 F/T cycles vs Baseline; for Accuracy: single QC replicate
Excerpt: as §1, §2
Seven of each LLOQ, QCLOW, QCMID, QCHIGH, and ULOQ sample in human plasma were stored at about −20° C. for at least 24 hours and thawed unassisted at ambient temperature. When completely thawed, the samples were refrozen for at least 12 hours under the same conditions. The freeze-thaw cycle was repeated two more times. After the third cycle the samples were worked up and analyzed. The concentrations in the frozen and thawed samples were compared with freshly processed QC samples. Concentrations were calculated based on two freshly prepared CALs measured at the beginning and the other at the end of the validation run.

[3] = LLOQ: 10 pg/ml, reinjection after 8 days at −20° C.
[4] = QCHIGH: 1000 pg/ml, reinjection after 8 days at −20° C.
[5] = QCLOW: 25 pg/ml, reinjection after 8 days at −20° C.
[6] = QCMID: 100 pg/ml, reinjection after 8 days at −20° C.
[7] = ULOQ: 10000 pg/ml, reinjection after 8 days at −20° C.
[8] = QCHIGH: 1000 pg/ml, 3 F/T cycles

CCN(CC)C(=O)C1C=C2c3cccc4c3C(O)(C[C@H]2N(C)C1)C(=O)N4 (stereo partly drawn) [O-H-LSD, 2,3-dihydro-3-hydroxy-2-oxo lysergide]
Change in concentration ([1]; LLOQ: 10 pg/ml): 1.86% | Change in concentration ([1]; QCHIGH: 1000 pg/ml): 2.08% | Change in concentration ([1]; QCLOW: 25 pg/ml): −0.149% | Change in concentration ([1]; QCMID: 100 pg/ml): −1.59% | Change in concentration ([1]; ULOQ: 10000 pg/ml): 0.101% | Change in concentration [%] ([1]; LLOQ: 10 pg/ml): −2.09% | Accuracy, Intra-assay Mean ([1]; LLOQ: 10 pg/ml, Baseline): 107% | Found at, Intra-assay Mean ([1]; LLOQ: 10 pg/ml, Baseline): 10.7 pg/mL | Accuracy ([1]; LLOQ: 10 pg/ml, Baseline): 108% and 113% and 102% and 88.5% and 120% and 97.8% and 116% | Accuracy, Intra-assay Mean [1, 3]: 104% | Found at, Intra-assay Mean [1, 3]: 10.4 pg/mL | Accuracy [1, 3]: 99.5% and 106% and 116% and 107% and 94.2% and 93.9% and 113% | Change in concentration [%] ([1]; QCHIGH: 1000 pg/ml): −1.05% | Accuracy, Intra-assay Mean ([1]; QCHIGH: 1000 pg/ml, Baseline): 103% | Found at, Intra-assay Mean ([1]; QCHIGH: 1000 pg/ml, Baseline): 1030 pg/mL | Accuracy ([1]; QCHIGH: 1000 pg/ml, Baseline): 103% (2×) and 105% (2×) and 99.6% and 99% and 106% | Accuracy, Intra-assay Mean [1, 4]: 102% | Found at, Intra-assay Mean [1, 4]: 1020 pg/mL | Accuracy [1, 4]: 101% (2×) and 105% and 99.3% and 100% and 102% and 104% | Change in concentration [%] ([1]; QCLOW: 25 pg/ml): −0.294% | Accuracy, Intra-assay Mean ([1]; QCLOW: 25 pg/ml, Baseline): 105% | Found at, Intra-assay Mean ([1]; QCLOW: 25 pg/ml, Baseline): 26.2 pg/mL | Accuracy ([1]; QCLOW: 25 pg/ml, Baseline): 103% and 116* % and 108% (2×) and 109% and 101% and 100% | Accuracy, Intra-assay Mean [1, 5]: 105% | Found at, Intra-assay Mean [1, 5]: 26.1 pg/mL | Accuracy [1, 5]: 104% (2×) and 115% and 109% and 96.5% and 108% and 97.3% | Change in concentration [%] ([1]; QCMID: 100 pg/ml): 1.9% | Accuracy, Intra-assay Mean ([1]; QCMID: 100 pg/ml, Baseline): 103% | Found at, Intra-assay Mean ([1]; QCMID: 100 pg/ml, Baseline): 103 pg/mL | Accuracy ([1]; QCMID: 100 pg/ml, Baseline): 101% and 102% (2×) and 104% and 106% and 108% and 98.5% | Accuracy, Intra-assay Mean [1, 6]: 105% | Found at, Intra-assay Mean [1, 6]: 105 pg/mL | Accuracy [1, 6]: 109% (2×) and 98% and 104% and 106% and 102% and 107% | Change in concentration [%] ([1]; ULOQ: 10000 pg/ml): −1.27% | Accuracy, Intra-assay Mean ([1]; ULOQ: 10000 pg/ml, Baseline): 100% | Found at, Intra-assay Mean ([1]; ULOQ: 10000 pg/ml, Baseline): 10000 pg/mL | Accuracy ([1]; ULOQ: 10000 pg/ml, Baseline): 101% (2×) and 98.5% and 98.4% and 97.7% and 102% (2×) | Accuracy, Intra-assay Mean [1, 7]: 98.8% | Found at, Intra-assay Mean [1, 7]: 9880 pg/mL | Accuracy [1, 7]: 97.3% and 97.6% and 97.5% and 96.9% and 103% and 98.8% and 101% | Deviations of the means of the QCs of the two runs (reinjection) after 8 days at −20° C. ([1]; worked-up human plasma samples, 8 days at −20° C.): −2.09% to +1.9 | Deviations of the means of the QCs of the two runs (reinjection) after overnight storage at 10° C. ([1]; worked-up human plasma samples, overnight at 10° C. in the autosampler): −1.59% to +2.08 | Accuracy, Intra-assay Mean ([2]; LLOQ: 10 pg/ml, 3 F/T cycles): 97% | Found at, Intra-assay Mean ([2]; LLOQ: 10 pg/ml, 3 F/T cycles): 9.7 pg/mL | Change in concentration [%] ([2]; LLOQ: 10 pg/ml): 6.46% | Accuracy ([2]; LLOQ: 10 pg/ml, 3 F/T cycles): 95.9% and 97.1% and 81.7% and 95.2% and 108% and 104% and 73.9* % | Accuracy, Intra-assay Mean ([2]; LLOQ: 10 pg/ml, Baseline): 91.1% | Found at, Intra-assay Mean ([2]; LLOQ: 10 pg/ml, Baseline): 9.11 pg/mL | Accuracy ([2]; LLOQ: 10 pg/ml, Baseline): 95% and 88.9% and 89.4% | Accuracy, Intra-assay Mean [2, 8]: 96.7% | Found at, Intra-assay Mean [2, 8]: 967 pg/mL | Change in concentration [%] ([2]; QCHIGH: 1000 pg/ml): 0.123% | Accuracy [2, 8]: 95% and 93.1% and 97.5% and 96.2% and 99.5% and 97.7% and 98.1% | Accuracy, Intra-assay Mean ([2]; QCHIGH: 1000 pg/ml, Baseline): 96.6% | Found at, Intra-assay Mean ([2]; QCHIGH: 1000 pg/ml, Baseline): 966 pg/mL | Accuracy ([2]; QCHIGH: 1000 pg/ml, Baseline): 97.7% and 96.2% and 95.9% | Accuracy, Intra-assay Mean ([2]; QCLOW: 25 pg/ml, 3 F/T cycles): 96.9%
